The source of these data is ChEMBL document CHEMBL1671661, “Inhibition of intracellular growth of Salmonella enterica serovar Typhimurium in tissue culture by antisense peptide-phosphorodiamidate morpholino oligomer” (Antimicrob Agents Chemother, 2009).

In data set [1] the test system is Salmonella typhimurium. Put plainly: Antibacterial activity against Salmonella enterica serovar Typhimurium 14028s by CLSI M7-A7 microdilution method. The class given is functional, Salmonella enterica subsp. enterica serovar Typhimurium. (In general: In broth dilution the organism is exposed to a series of concentrations in liquid medium.)
In data set [2] the test system is Salmonella typhimurium. The experiment in a line: Antibacterial activity against 9.0 x 10^7 CFU/ml Salmonella enterica serovar Typhimurium 14028s infected in RAW264.7 mouse macrophages assessed as decrease in intracellular bacterial level at 3 uM measured 2 hrs post infection. The class given is functional.
In data set [3] the test system is Salmonella typhimurium. Put plainly: Antibacterial activity against 9.0 x 10^7 CFU/ml Salmonella enterica serovar Typhimurium 14028s assessed as decrease in growth rate at 2.5 uM by spectrophotometry. The following applies: Salmonella enterica subsp. enterica serovar Typhimurium. The class given is functional, organism-based.
Data set [4] deals with Salmonella typhimurium. The experiment in a line: Antibacterial activity against 9.0 x 10^7 CFU/ml Salmonella enterica serovar Typhimurium 14028s assessed as decrease in bacterial viable cell count at 2.5 uM by spectrophotometry. The class given is functional, organism-based. The following applies: Salmonella enterica subsp. enterica serovar Typhimurium.
The subject of data set [5] is Salmonella typhimurium. Put plainly: Antibacterial activity against 9.0 x 10^7 CFU/ml Salmonella enterica serovar Typhimurium 14028s infected in RAW264.7 mouse macrophages assessed as decrease in intracellular bacterial level at 3 uM measured 42 hrs post infection relative to untreated control. The class given is functional.
For data set [6], the system named is Salmonella typhimurium. The experiment in a line: Antibacterial activity against 9.0 x 10^7 CFU/ml Salmonella enterica serovar Typhimurium 14028s infected in RAW264.7 mouse macrophages assessed as decrease in intracellular bacterial level at 3 uM measured 18 hrs post infection. The class given is functional, organism-based. The note with it: Salmonella enterica subsp. enterica serovar Typhimurium.

In data set [7] the test system is Salmonella typhimurium. The experiment in a line: Antibacterial activity against 9.0 x 10^7 CFU/ml Salmonella enterica serovar Typhimurium 14028s assessed as decrease in bacterial viable cell count at 2.5 uM by spectrophotometry relative to untreated control. The class given is functional, Salmonella enterica subsp. enterica serovar Typhimurium.
For a further data set, the system named is Serum. The experiment in a line: Drug concentration in rat serum administered as single bolus dose. The class given is ADME, organism-based. The note with it: in vivo.
Data set [8] deals with Salmonella typhimurium. The experiment in a line: Antibacterial activity against 9.0 x 10^7 CFU/ml Salmonella enterica serovar Typhimurium 14028s assessed as decrease in growth rate at 50 uM by spectrophotometry. The class given is functional, organism-based. The following applies: Salmonella enterica subsp. enterica serovar Typhimurium.
The mark [9] stands for this setting: Salmonella enterica subsp. enterica serovar Typhimurium.

Structures are written as SMILES. Converted amounts (≈) assume the structure as drawn. The source made the active and inactive calls.

`CC1(C)S[C@@H]2[C@H](NC(=O)[C@H](N)c3ccccc3)C(=O)N2[C@H]1C(=O)O` [AMPICILLIN]: 20 µM (≈ 6.99 µg/mL) was the least that counted as inhibitory in the data set on Salmonella typhimurium [1] (MIC).
As for `CC(=O)N[C@@H](CCCNC(=N)N)C(=O)NCCCCCC(=O)N[C@@H](CCCNC(=N)N)C(=O)N[C@@H](CCCNC(=N)N)C(=O)NCCCCCC(=O)N[C@@H](CCCNC(=N)N)C(=O)[C@H](CCCNC(=N)N)NC(=O)CCCCCNC(=O)N[C@@H](CCCNC(=N)N)C(=O)N[C@@H](CCCNC(=N)N)C(=O)NCCCCCC(=O)N[C@@H](CCCNC(=N)N)C(=O)NCCCCCC(=O)NCCC(=O)N1C[C@@H](COP(=O)(N2CCNCC2)N2C[C@@H](COP(=O)(N(C)C)N3C[C@@H](COP(=O)(N(C)C)N4C[C@@H](COP(=O)(N5CCNCC5)N5C[C@@H](COP(=O)(N(C)C)N6C[C@@H](COP(=O)(N(C)C)N7C[C@@H](COP(=O)(N(C)C)N8C[C@@H](COP(=O)(N(C)C)N9C[C@@H](COP(=O)(N%10CCNCC%10)N%10C[C@@H](COP(=O)(N(C)C)N%11C[C@@H](CO)O[C@@H](n%12cc(C)c(=O)[nH]c%12=O)C%11)O[C@@H](n%11ccc(N)nc%11=O)C%10)O[C@@H](n%10cc(C)c(=O)[nH]c%10=O)C9)O[C@@H](n9ccc(N)nc9=O)C8)O[C@@H](n8cnc9c(N)ncnc98)C7)O[C@@H](n7cnc8c(=O)[nH]c(N)nc87)C6)O[C@@H](n6cnc7c(N)ncnc76)C5)O[C@@H](n5cc(C)c(=O)[nH]c5=O)C4)O[C@@H](n4cnc5c(=O)[nH]c(N)nc54)C3)O[C@@H](n3cnc4c(=O)[nH]c(N)nc43)C2)O[C@@H](n2cc(C)c(=O)[nH]c2=O)C1` (stereo partly drawn), the result in the data set with Salmonella typhimurium [2] (setting [9]), with Salmonella typhimurium [3], with Salmonella typhimurium [4], with Salmonella typhimurium [5] (setting [9]) and in the data set with Salmonella typhimurium [6] was inactive. Besides, in the data set on Salmonella typhimurium [1], the MIC (in general, the smallest concentration in the dilution series that meets the test's criterion for growth inhibition) was over 160 µM.
With `CC(=O)N[C@@H](CCCNC(=N)N)C(=O)NCCCCCC(=O)N[C@@H](CCCNC(=N)N)C(=O)N[C@@H](CCCNC(=N)N)C(=O)NCCCCCC(=O)N[C@@H](CCCNC(=N)N)C(=O)[C@H](CCCNC(=N)N)NC(=O)CCCCCNC(=O)N[C@@H](CCCNC(=N)N)C(=O)N[C@@H](CCCNC(=N)N)C(=O)NCCCCCC(=O)N[C@@H](CCCNC(=N)N)C(=O)NCCCCCC(=O)NCCC(=O)N1C[C@@H](COP(=O)(N(C)C)N2C[C@@H](COP(=O)(N3CCNCC3)N3C[C@@H](COP(=O)(N(C)C)N4C[C@@H](COP(=O)(N(C)C)N5C[C@@H](COP(=O)(N6CCNCC6)N6C[C@@H](COP(=O)(N(C)C)N7C[C@@H](COP(=O)(N(C)C)N8C[C@@H](COP(=O)(N(C)C)N9C[C@@H](COP(=O)(N(C)C)N%10C[C@@H](COP(=O)(N%11CCNCC%11)N%11C[C@@H](CO)O[C@@H](n%12ccc(N)nc%12=O)C%11)O[C@@H](n%11cc(C)c(=O)[nH]c%11=O)C%10)O[C@@H](n%10cc(C)c(=O)[nH]c%10=O)C9)O[C@@H](n9ccc(N)nc9=O)C8)O[C@@H](n8cnc9c(=O)[nH]c(N)nc98)C7)O[C@@H](n7cnc8c(N)ncnc87)C6)O[C@@H](n6cc(C)c(=O)[nH]c6=O)C5)O[C@@H](n5cnc6c(N)ncnc65)C4)O[C@@H](n4cnc5c(=O)[nH]c(N)nc54)C3)O[C@@H](n3cc(C)c(=O)[nH]c3=O)C2)O[C@@H](n2cnc3c(=O)[nH]c(N)nc32)C1` (stereo partly drawn), the “fold change (FC)” value in the data set on Salmonella typhimurium [7] was 3; with Salmonella typhimurium [5], 2. Moreover, the Activity in the data set on Salmonella typhimurium [2] was 56%. The outcome in the data set on Salmonella typhimurium [3], in the data set on Salmonella typhimurium [4] and in the data set with Salmonella typhimurium [6] was Active. In the data set with Salmonella typhimurium [1], this molecule showed an MIC of 0.156 µM (≈ 0.883 µg/mL). The Drug uptake in the data set on Serum stood at 1 µg/mL.
With `CC(=O)N[C@@H](CCCNC(=N)N)C(=O)NCCCCCC(=O)N[C@@H](CCCNC(=N)N)C(=O)N[C@@H](CCCNC(=N)N)C(=O)NCCCCCC(=O)N[C@@H](CCCNC(=N)N)C(=O)[C@H](CCCNC(=N)N)NC(=O)CCCCCNC(=O)N[C@@H](CCCNC(=N)N)C(=O)N[C@@H](CCCNC(=N)N)C(=O)NCCCCCC(=O)N[C@@H](CCCNC(=N)N)C(=O)NCCCCCC(=O)NCCC(=O)N1C[C@@H](COP(=O)(N(C)C)N2C[C@@H](COP(=O)(N(C)C)N3C[C@@H](COP(=O)(N(C)C)N4C[C@@H](COP(=O)(N(C)C)N5C[C@@H](COP(=O)(N(C)C)N6C[C@@H](COP(=O)(N(C)C)N7C[C@@H](COP(=O)(N(C)C)N8C[C@@H](COP(=O)(N(C)C)N9C[C@@H](COP(=O)(N(C)C)N%10C[C@@H](COP(=O)(N(C)C)N%11C[C@@H](CO)O[C@@H](n%12cc(C)c(=O)[nH]c%12=O)C%11)O[C@@H](n%11ccc(N)nc%11=O)C%10)O[C@@H](n%10cc(C)c(=O)[nH]c%10=O)C9)O[C@@H](n9ccc(N)nc9=O)C8)O[C@@H](n8cnc9c(N)ncnc98)C7)O[C@@H](n7cnc8c(=O)[nH]c(N)nc87)C6)O[C@@H](n6cnc7c(N)ncnc76)C5)O[C@@H](n5cc(C)c(=O)[nH]c5=O)C4)O[C@@H](n4cnc5c(=O)[nH]c(N)nc54)C3)O[C@@H](n3cnc4c(=O)[nH]c(N)nc43)C2)O[C@@H](n2cc(C)c(=O)[nH]c2=O)C1` (stereo partly drawn), the result in the data set with Salmonella typhimurium [3] and with Salmonella typhimurium [4] was inactive. For the same molecule, the MIC against Salmonella typhimurium [1] is over 160 µM.
As for `CC(=O)N[C@@H](CCCNC(=N)N)C(=O)NCCCCCC(=O)N[C@@H](CCCNC(=N)N)C(=O)N[C@@H](CCCNC(=N)N)C(=O)NCCCCCC(=O)N[C@@H](CCCNC(=N)N)C(=O)[C@H](CCCNC(=N)N)NC(=O)CCCCCNC(=O)N[C@@H](CCCNC(=N)N)C(=O)N[C@@H](CCCNC(=N)N)C(=O)NCCCCCC(=O)N[C@@H](CCCNC(=N)N)C(=O)NCCCCCC(=O)NCCC(=O)N1C[C@@H](COP(=O)(N(C)C)N2C[C@@H](COP(=O)(N(C)C)N3C[C@@H](COP(=O)(N(C)C)N4C[C@@H](COP(=O)(N(C)C)N5C[C@@H](COP(=O)(N(C)C)N6C[C@@H](COP(=O)(N(C)C)N7C[C@@H](COP(=O)(N(C)C)N8C[C@@H](COP(=O)(N(C)C)N9C[C@@H](COP(=O)(N(C)C)N%10C[C@@H](COP(=O)(N(C)C)N%11C[C@@H](CO)O[C@@H](n%12ccc(N)nc%12=O)C%11)O[C@@H](n%11cc(C)c(=O)[nH]c%11=O)C%10)O[C@@H](n%10cc(C)c(=O)[nH]c%10=O)C9)O[C@@H](n9ccc(N)nc9=O)C8)O[C@@H](n8cnc9c(=O)[nH]c(N)nc98)C7)O[C@@H](n7cnc8c(N)ncnc87)C6)O[C@@H](n6cc(C)c(=O)[nH]c6=O)C5)O[C@@H](n5cnc6c(N)ncnc65)C4)O[C@@H](n4cnc5c(=O)[nH]c(N)nc54)C3)O[C@@H](n3cc(C)c(=O)[nH]c3=O)C2)O[C@@H](n2cnc3c(=O)[nH]c(N)nc32)C1` (stereo partly drawn), the result in the data set on Salmonella typhimurium [3] was inactive. For the same molecule, the result with Salmonella typhimurium [4] and in the data set on Salmonella typhimurium [8] was Active. Besides, inhibition of growth against Salmonella typhimurium [1] (MIC) required 1.25 µM (≈ 6.92 µg/mL). Moreover, in the data set with Serum, the Drug uptake was determined as 1 µg/mL.
